From patent publication US20120165304A1, “6,7,8,9-Tetrahydro-5H-1,4,7,10a-tetraaza-cyclohept[f]indene derivatives, pharmaceutical compositions containing these compounds, their use and processes for preparing them” (BOEHRINGER INGELHEIM INTERNATIONAL GMBH, priority 2008, published 2012)

Molecular target: human 5-HT2C receptor (Homo sapiens, UniProt P28335, I156V/I160V/N158S)
Assay: cell-based

human 5-HT2C receptor, sequence (P28335 33-458 I156V/N158S/I160V limits assumed): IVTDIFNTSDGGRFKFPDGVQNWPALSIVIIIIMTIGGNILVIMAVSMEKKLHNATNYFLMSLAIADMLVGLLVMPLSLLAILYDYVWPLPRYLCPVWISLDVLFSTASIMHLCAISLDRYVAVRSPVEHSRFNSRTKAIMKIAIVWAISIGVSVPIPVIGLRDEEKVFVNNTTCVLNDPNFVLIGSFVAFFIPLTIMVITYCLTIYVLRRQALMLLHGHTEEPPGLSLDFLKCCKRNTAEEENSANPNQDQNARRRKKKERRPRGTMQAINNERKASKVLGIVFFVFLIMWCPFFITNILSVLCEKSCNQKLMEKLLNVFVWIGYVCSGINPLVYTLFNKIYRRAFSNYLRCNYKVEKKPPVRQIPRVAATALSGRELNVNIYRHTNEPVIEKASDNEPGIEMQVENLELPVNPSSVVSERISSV

Structure (SMILES)	EC50
FC(F)(F)c1cccnc1OC1CN(c2c3c(nc4ccnn24)CCNCC3)C1 [Example 20.12]	959 nM
O=C(C1CCCN(c2c3c(nc4ccnn24)CCNCC3)C1)N1CCCCC1 (stereo not shown) [Example 1.61]	4710 nM
CNCCN(C)C(=O)C1CN(c2c3c(nc4ccnn24)CCNCC3)C1 [Example 37.20]	26 nM
COc1cc(Cl)ccc1OCC1CN(c2c3c(nc4ccnn24)CCNCC3)C1 [Example 15.26]	163 nM
Cc1ccc(F)c(OCC2CN(c3c4c(nc5ccnn35)CCNCC4)C2)c1F [Example 15.24]	54 nM
O=C(C1CN(c2c3c(nc4ccnn24)CCNCC3)C1)N1CCC(N2CCCC2)CC1 [Example 37.5]	2 nM
O=C(C1CN(c2c3c(nc4ccnn24)CCNCC3)C1)N1CCC(c2cccc(Cl)c2)CC1 [Example 31.111]	56 nM
CN1CCc2nc3ccnn3c(N3CC(C(=O)N4CCN(CC5CC5)CC4)C3)c2CC1 [Example 36.18]	77 nM
C[C@@H]1CN(C(=O)C2CN(c3c4c(nc5ccnn35)CCN(C)CC4)C2)C[C@H](C)O1 [Example 36.21]	161 nM
CC1(C)CCC(NC(=O)C2CN(c3c4c(nc5ccnn35)CCNCC4)C2)CC1 [Example 37.53]	20 nM
Cc1cnn2c(N3CC(C(=O)N4CCc5cc(F)ccc54)C3)c3c(nc12)CCNCC3 [Example 31.245]	26 nM
Clc1cccc(OC2CN(c3c4c(nc5ccnn35)CCNCC4)C2)c1 [Example 35.50]	208 nM
COc1ccc(N(C)C(=O)C2CN(c3c4c(nc5ccnn35)CCNCC4)C2)cc1 [Example 31.31]	2150 nM
O=C(NCc1ccc(OC(F)F)cc1)C1CN(c2c3c(nc4ccnn24)CCNCC3)C1 [Example 37.97]	8 nM
Brc1cccc(OC2CN(c3c4c(nc5ccnn35)CCNCC4)C2)c1 [Example 35.14]	477 nM
CN1CCc2nc3ccnn3c(N3CC(C(=O)NCCCN4CC[C@@H](F)C4)C3)c2CC1 [Example 36.32]	288 nM
c1ccc(CCn2c(C3CN(c4c5c(nc6ccnn46)CCNCC5)C3)nc3ccccc32)cc1 [Example 34.36]	353 nM
O=C(NCCC(F)(F)F)C1CN(c2c3c(nc4ccnn24)CCNCC3)C1 [Example 37.63]	84 nM
O=C(NC1CCCCC1)C1CN(c2c3c(nc4ccnn24)CCNCC3)C1 [Example 37.71]	114 nM
CC(C)(C)CNC(=O)C1CN(c2c3c(nc4ccnn24)CCNCC3)C1 [Example 37.76]	65 nM
CCCCN1CCN(C(=O)C2CN(c3c4c(nc5ccnn35)CCNCC4)C2)CC1 [Example 37.25]	3 nM
COc1ccc(C2(CNC(=O)C3CN(c4c5c(nc6ccnn46)CCNCC5)C3)CCCCC2)cc1 [Example 31.185]	1470 nM
O=C(C1CN(c2c3c(nc4ccnn24)CCNCC3)C1)N1CCC(c2ccncc2)CC1 [Example 31.182]	9 nM
Cc1cccc(C2CCN(C(=O)C3CN(c4c5c(nc6ccnn46)CCNCC5)C3)CC2)c1 [Example 31.167]	101 nM
CC#CCN(CC(C)C)C(=O)C1CN(c2c3c(nc4ccnn24)CCNCC3)C1 [Example 31.104]	215 nM
CCc1cnn2c(N3CCCCC3)c3c(nc12)CCNCC3 [Example 25, 3-Ethyl-10-piperidin-1-yl-6,7,8,9-tetrahydro-5H-1,4,7,10a-tetraaza-cyclohepta[f]indene]	106 nM
CC1C=CC(C)N1C(=O)C1CN(c2c3c(nc4ccnn24)CCNCC3)C1 (stereo not shown) [Example 31.192]	359 nM

Structure (SMILES)	EC50
CN1CCc2nc3ccnn3c(N3CC(C(=O)NC4CCCC(C(F)(F)F)C4)C3)c2CC1 (stereo not shown) [Example 36.45]	87 nM
CN(C(=O)C1CN(c2c3c(nc4ccnn24)CCNCC3)C1)C1CC1 [Example 31.10]	1670 nM
CN1CCc2nc3ccnn3c(N3CC(C(=O)N4CCN(C5CCCC5)CC4)C3)c2CC1 [Example 36.13]	114 nM
O=C(C1CN(c2c3c(nc4ccnn24)CCNCC3)C1)N1CCCNCC1 [Example 37.6]	2 nM
c1ccc(COC2CN(c3c4c(nc5ccnn35)CCNCC4)C2)cc1 [Example 20, 10-(3-Benzyloxy-azetidin-1-yl)-6,7,8,9-tetrahydro-5H-1,4,7,10a-tetraaza-cyclohepta[f]indene]	350 nM
COc1ccc(CC2CN(c3c4c(nc5ccnn35)CCNCC4)C2)cc1 [Example 18.1]	119 nM
C#CC(C)(C)NC(=O)C1CN(c2c3c(nc4ccnn24)CCNCC3)C1 [Example 37.91]	301 nM
CC1CCCCN1C(=O)C1CN(c2c3c(nc4ccnn24)CCNCC3)C1 (stereo not shown) [Example 31.62]	925 nM
CN1CCc2nc3ccnn3c(N3CC(C(=O)N[C@H]4CC[C@H](N(C)C)CC4)C3)c2CC1 [Example 36.16]	282 nM
CCC1CCC(C)N(C(=O)C2CN(c3c4c(nc5ccnn35)CCNCC4)C2)C1 (stereo not shown) [Example 31.184]	287 nM
CNC(=O)C1CN(c2c3c(nc4ccnn24)CCNCC3)C1 [Example 9.1]	818 nM
Cc1ccc2c(c1)CCCN2C(=O)C1CN(c2c3c(nc4ccnn24)CCNCC3)C1 [Example 31.190]	4 nM
CC1CCCC(NC(=O)C2CN(c3c4c(nc5ccnn35)CCNCC4)C2)C1 (stereo not shown) [Example 37.70]	69 nM
O=C(NC1CCC1)C1CN(c2c3c(nc4ccnn24)CCNCC3)C1 [Example 37.92]	161 nM
O=C(C1CN(c2c3c(nc4ccnn24)CCNCC3)C1)N1CCc2ccccc21 [Example 31.143]	49 nM
COc1ccc(OC2CN(c3c4c(nc5ccnn35)CCNCC4)C2)c(F)c1 [Example 35.34]	65 nM
O=C(C1CN(c2c3c(nc4c(Br)cnn24)CCNCC3)C1)N1CCc2ccccc2C1 [Example 31.136]	78 nM
c1ccc(C2OCCN(c3c4c(nc5ccnn35)CCNCC4)C2c2ccccc2)cc1 (stereo not shown) [Example 1.40]	1290 nM
Cc1cnn2c(N3CC(C(=O)N4CCc5c(cccc5C(F)(F)F)C4)C3)c3c(nc12)CCNCC3 [Example 31.239]	80 nM
O=C(C1CN(c2c3c(nc4ccnn24)CCNCC3)C1)N1CC=C(c2ccccc2)CC1 [Example 31.181]	84 nM
Clc1ccc(OC2CN(c3c4c(nc5ccnn35)CCNCC4)C2)cc1 [Example 35, 10-[3-(4-Chloro-phenoxy)-azetidin-1-yl]-6,7,8,9-tetrahydro-5H-1,4,7,10a-tetraaza-cyclohepta[f]indene]	141 nM
O=C(C1CN(c2c3c(nc4ccnn24)CCNCC3)C1)N1CCC(c2ccccc2F)CC1 [Example 31.113]	27 nM
O=C(C1CN(c2c3c(nc4ccnn24)CCNCC3)C1)N1CCC2(CCCC2)C1 [Example 31.123]	9 nM
O=C(C1CN(c2c3c(nc4ccnn24)CCNCC3)C1)N1CCC2(CCCC2)CC1 [Example 31.41]	58 nM
O=C(C1CN(c2c3c(nc4ccnn24)CCNCC3)C1)N1CC[C@@H](c2ccccc2)C1 [Example 31.223]	39 nM
c1ccc2c(c1)nc(C1CN(c3c4c(nc5ccnn35)CCNCC4)C1)n2C1CCCC1 [Example 34.29]	96 nM
CCc1cnn2c(N3CCC3)c3c(nc12)CCNCC3 [Example 25.2]	12 nM

Structure (SMILES)	EC50
C1=C(c2c3c(nc4ccnn24)CCNCC3)CCNC1 [Example 24, 10-(1,2,3,6-Tetrahydro-pyridin-4-yl)-6,7,8,9-tetrahydro-5H-1,4,7,10a-tetraaza-cyclohepta[f]indene]	588 nM
c1ccc2cc(OC3CN(c4c5c(nc6ccnn46)CCNCC5)C3)ccc2c1 [Example 35.46]	495 nM
O=C(C1CN(c2c3c(nc4ccnn24)CCNCC3)C1)N1CC2CCCC2C1 (stereo not shown) [Example 31.166]	97 nM
CC(C)N(C)C(=O)C1CN(c2c3c(nc4ccnn24)CCNCC3)C1 [Example 31.6]	5940 nM
CS(=O)(=O)N1CCN(C(=O)C2CN(c3c4c(nc5ccnn35)CCNCC4)C2)CC1 [Example 37.45]	2 nM
FC(F)(F)c1ccccc1OC1CN(c2c3c(nc4ccnn24)CCNCC3)C1 [Example 35.31]	129 nM
COc1ccccc1CN(C)C(=O)C1CN(c2c3c(nc4ccnn24)CCNCC3)C1 [Example 31.51]	85 nM
O=C(N1CCOCC1)C1(c2ccccc2)CCN(c2c3c(nc4ccnn24)CCNCC3)CC1 [Example 1.54]	1640 nM
CCN1CCN(C(=O)C2CN(c3c4c(nc5ccnn35)CCNCC4)C2)CC1 [Example 37.1]	3 nM
CC(C)(C)N1CCC2(CCN(C(=O)C3CN(c4c5c(nc6ccnn46)CCNCC5)C3)CC2)C1=O [Example 31.150]	240 nM
Cc1cccc2c1CCN2C(=O)C1CN(c2c3c(nc4ccnn24)CCNCC3)C1 [Example 31.175]	64 nM
OCC1CN(c2c3c(nc4ccnn24)CCNCC3)C1 [Example 1.5]	193 nM
NC1CCN(C(=O)C2CN(c3c4c(nc5ccnn35)CCNCC4)C2)C1 (stereo not shown) [Example 37.16]	5 nM
O=C(C1CN(c2c3c(nc4ccnn24)CCNCC3)C1)N1CCC(c2cccc(F)c2)C1 (stereo not shown) [Example 31.118]	11 nM
CCCCN1CCN(C(=O)C2CN(c3c4c(nc5ccnn35)CCNCC4)C2)CC1=O [Example 37.51]	11 nM
O=C(C1CN(c2c3c(nc4ccnn24)CCNCC3)C1)N1CCC(c2cccc(F)c2)CC1 [Example 31.211]	31 nM
O=C(NC1CCCC(C(F)(F)F)C1)C1CN(c2c3c(nc4ccnn24)CCNCC3)C1 (stereo not shown) [Example 37.59]	47 nM
CN(Cc1ccc(Cl)cc1Cl)C(=O)C1CN(c2c3c(nc4ccnn24)CCNCC3)C1 [Example 31.164]	111 nM
O=C(C1CN(c2c3c(nc4ccnn24)CCNCC3)C1)N1CCC2(CC1)OCc1ccccc12 [Example 31.153]	86 nM
c1cc2nc3c(c(N4CC(OC5CCCC5)C4)n2n1)CCNCC3 [Example 20.5]	358 nM
Cc1cnn2c(N3CC(C(=O)N4CCC(C(F)(F)F)CC4)C3)c3c(nc12)CCNCC3 [Example 31.237]	11 nM
CCCCNC(=O)C1CN(c2c3c(nc4ccnn24)CCNCC3)C1 [Example 37.72]	91 nM
CN1CCC(CNC(=O)C2CN(c3c4c(nc5ccnn35)CCNCC4)C2)CC1 [Example 37.89]	19 nM
c1cc2nc3c(c(N4CC(OCC5CC5)C4)n2n1)CCNCC3 [Example 20.3]	469 nM
CN(Cc1c(Cl)cccc1Cl)C(=O)C1CN(c2c3c(nc4ccnn24)CCNCC3)C1 [Example 31.160]	458 nM
